One experiment has as its system HCT116 MTAP KO cells. Put plainly: Inhibitory activity against cell proliferation (CellTiter Glo, 6 days), HCT116 MTAP KO. It counts as cell-based. The settings on record: for IC50: HCT116 MTAP KO cells, 6 days, CellTiter Glo, read-out: HCT116 MTAP KO IC50; for Selectivity HCT 116-WT/ HCT116 MTAP KO: ratio of IC50 HCT116-WT / HCT116 MTAP KO. Here is the method: (§1) HCT116-WT (ATCC, CCL-247) and HCT116 MTAP KO (Nanjing Cobioer, CBP75002) cells were seeded into white low-transparency sterile 96-well cell culture plates at a density of 250 cells per well respectively, and the culture medium was McCoy's 5A Medium+10% FBS. The plates were placed under the condition of 37°C and 5% CO2 to be cultured overnight. The cells were treated with 4-fold serially diluted compounds of 8 concentration points starting at an initial concentration of 10000 nM, and the last two columns were used as control wells to which only DMSO was added. The drug-treated cells were further cultured for 6 days. On day 7, CellTiter Glo® reagent was added at 50 uL per well, and after reaction under shaking for 10 minutes at room temperature, the chemiluminescence signals were detected for the well plates through the chemiluminescence detection method using a BIOTEK H1 multifunctional microplate-reader. The IC50 values for inhibition of the compounds on cell viability were calculated in X1fit 5.0 software. Table 2. IC50 values for inhibition of the compounds on HCT116 MTAP KO/WT cell growth

Another experiment has as its system HCT116-WT cells. Put plainly: Inhibitory activity against cell proliferation (CellTiter Glo, 6 days), HCT116-WT. Particulars: HCT116-WT cells, 6 days, CellTiter Glo, read-out: HCT116-WT IC50. It counts as cell-based. Here is the method: as §1
(In general: In ATP-based viability assays light output follows the ATP content of the culture.)

A further experiment deals with PRMT5-MTA (Homo sapiens, UniProt O14744). Briefly: Enzymatic inhibitory activity against PRMT5-MTA (AlphaScreen). It counts as biochemical. The settings on record: read-out: IC50. Put shortly:
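PRMT5/[…] (1 nM) was preincubated for 30 min at room temperature with 1 µM […] and 2.5 µM SAM, then exposed to compound (10-point, 3-fold from 1000 nM) for 15 min at 23 °C. Histone H4 substrate (5 nM) was added and reacted for 45 min at 23 °C. Symmetric dimethyl-R3 H4 was detected by AlphaScreen and IC50 calculated.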

Each structure is given as a SMILES string. Read-outs that look alike come from different tables or passages of the source.

Sequence of PRMT5-MTA (O14744 whole entry): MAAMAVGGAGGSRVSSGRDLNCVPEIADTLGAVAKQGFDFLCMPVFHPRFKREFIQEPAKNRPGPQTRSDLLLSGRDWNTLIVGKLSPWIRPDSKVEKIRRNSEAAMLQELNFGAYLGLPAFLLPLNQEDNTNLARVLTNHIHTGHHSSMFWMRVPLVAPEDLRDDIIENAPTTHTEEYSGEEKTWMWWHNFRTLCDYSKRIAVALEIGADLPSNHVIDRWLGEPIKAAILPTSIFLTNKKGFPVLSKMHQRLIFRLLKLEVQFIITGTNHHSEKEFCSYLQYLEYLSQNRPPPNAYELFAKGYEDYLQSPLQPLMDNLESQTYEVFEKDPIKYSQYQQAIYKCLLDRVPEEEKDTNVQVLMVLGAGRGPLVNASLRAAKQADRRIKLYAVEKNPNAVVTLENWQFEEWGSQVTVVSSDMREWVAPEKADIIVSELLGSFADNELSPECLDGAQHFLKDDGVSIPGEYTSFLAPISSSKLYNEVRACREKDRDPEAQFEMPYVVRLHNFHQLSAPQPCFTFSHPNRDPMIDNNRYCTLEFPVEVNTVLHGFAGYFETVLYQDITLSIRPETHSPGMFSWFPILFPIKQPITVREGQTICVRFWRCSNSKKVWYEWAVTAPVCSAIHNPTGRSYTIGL
Sequence of PRMT5-MTA (Q9BQA1 whole entry partner): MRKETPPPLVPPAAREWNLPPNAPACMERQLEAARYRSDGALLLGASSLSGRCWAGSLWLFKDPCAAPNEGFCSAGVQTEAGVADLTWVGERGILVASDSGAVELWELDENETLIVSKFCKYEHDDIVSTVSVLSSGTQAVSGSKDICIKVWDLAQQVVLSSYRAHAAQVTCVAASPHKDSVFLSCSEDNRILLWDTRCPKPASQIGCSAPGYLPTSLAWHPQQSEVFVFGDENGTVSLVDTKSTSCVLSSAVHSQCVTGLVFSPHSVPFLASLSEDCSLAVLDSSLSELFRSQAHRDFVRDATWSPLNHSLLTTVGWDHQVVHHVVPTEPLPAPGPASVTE

By IC50 is commonly meant the midpoint of a concentration-inhibition curve. `[2H]C([2H])([2H])c1cc2cc(C(=O)N(Cc3ccc(-c4nncs4)cn3)N(c3ncccn3)C3CC3)ccc2nc1N` [Example 315, N-((5-(1,3,4-thiadiazol-2-yl)pyridin-2-yl)methyl)-2-amino-N'-cyclopropyl-3-(methyl-d3)-N'-(pyrimidin-2-yl)quinoline-6-carbohydrazide]: the 50% inhibitory concentration (IC50) in the experiment with HCT116 MTAP KO cells (Homo sapiens, HCT-116, 144 h) was found to be 54 nM; with HCT116-WT cells (144 h), 1350 nM. Besides, the “Selectivity HCT 116-WT/ HCT116 MTAP KO” value in the experiment with HCT116 MTAP KO cells stood at 24.96.
Consider `Cc1cc2nc(N)c3cnn(C)c3c2cc1C(=O)N1C(C)CCN1c1ncccc1F` (centres unmarked) [Example 376, (4-amino-1,7-dimethyl-1H-pyrazolo[4,3-c]quinolin-8-yl)(2-(3-fluoropyridin-2-yl)-5-methylpyrazolidin-1-yl)methanone], for which the figures for the IC50 with HCT116 MTAP KO cells and with HCT116-WT cells were 105 nM and 3720 nM, respectively. In addition, the “Selectivity HCT 116-WT/ HCT116 MTAP KO” value in the experiment on HCT116 MTAP KO cells turned out to be 35.48.
Take `Cc1cc2cc(C(=O)N(Cc3ccc(-c4ccc(N(C)CCO)nc4)cn3)N(C)c3ncccn3)ccc2nc1N` [Example 246, 2-amino-N-((6'-((2-hydroxyethyl) (methyl)amino)-[3,3'-bipyridine]-6-yl)methyl)-N',3-dimethyl-N'-(pyrimidin-2-yl)quinoline-6-carbohydrazide]: the IC50 was determined as 18 nM with HCT116 MTAP KO cells (Homo sapiens, HCT-116, 144 h) and 482 nM with HCT116-WT cells (144 h). Besides, the “Selectivity HCT 116-WT/ HCT116 MTAP KO” value in the experiment on HCT116 MTAP KO cells is given as 26.78.
Turning to `Cc1cc2cc(C(=O)N(Cc3ccc(-c4ccc(N(C)C5CCC5)nc4)cn3)N(C)c3ncccn3)ccc2nc1N` [Compound 261, 2-amino-N-((6'-(cyclobutyl(methyl)amino)-[3,3'-bipyridin]-6-yl)methyl)-N',3-dim ethyl-N'-(pyrimidin-2-yl)quinoline-6-carb ohydrazide], the IC50 in the experiment with HCT116 MTAP KO cells (Homo sapiens, HCT-116, 144 h) stood at 40 nM; with HCT116-WT cells (144 h), 684 nM. The “Selectivity HCT 116-WT/ HCT116 MTAP KO” value in the experiment with HCT116 MTAP KO cells is listed as 17.10.
As to `Cc1cc2cc(C(=O)N(Cc3ccc(-c4ccc(N5CCNCC5)nc4)cn3)N(C)c3ncccn3)ccc2nc1N` [Example 207, 2-amino-N',3-dimethyl-N-((6'-(piperazin-1-yl)-[3,3'-bipyridine]-6-yl)methyl)-N'-(pyrimidin-2-yl)quinoline-6-carbohydrazide], the IC50 came out at 26 nM with HCT116 MTAP KO cells (Homo sapiens, HCT-116, 144 h) and 488 nM in the experiment on HCT116-WT cells (144 h). The “Selectivity HCT 116-WT/ HCT116 MTAP KO” value in the experiment on HCT116 MTAP KO cells is given as 18.77.
For `Cc1cc2cc(C(=O)N(Cc3ccc(-c4cncs4)cn3)N(C)c3ncccn3)ccc2nc1N` [Example 204, 2-amino-N',3-dimethyl-N'-(pyrimidin-2-yl)-N-((5-(thiazol-5-yl)pyridin-2-yl)methyl)quinoline-6-carbohydrazide], the half-inhibitory concentration (IC50) with HCT116 MTAP KO cells (Homo sapiens, HCT-116, 144 h) was 14 nM; in the experiment with HCT116-WT cells (144 h), 396 nM. Besides, the “Selectivity HCT 116-WT/ HCT116 MTAP KO” value in the experiment on HCT116 MTAP KO cells worked out at 28.29.
For `CCN(CC)c1ccc(-c2ccc(CN(C(=O)c3ccc4nc(N)c(C)cc4c3)N(C)c3ncccn3)nc2)cn1` [Example 255, 2-amino-N-((6'-(diethylamino)-[3,3'-bipyridin]-6-yl)methyl)-N',3-dimethyl-N'-(pyrimidin-2-yl)quinoline-6-carbohydrazide] the same measures were 81 nM, 978 nM and 12.07.
Consider `Cc1cc2nc(N)c3cnn(C)c3c2cc1C(=O)N1CCCN1c1ccc(F)cn1` [Example 344, (4-amino-1,7-dimethyl-1H-pyrazolo[4,3-c]quinolin-8-yl)(2-(5-fluoropyridin-2-yl)pyrazolidin-1-yl)methanone], for which the half-inhibitory concentration (IC50) on PRMT5-MTA amounted to 4.7 nM; with HCT116 MTAP KO cells (Homo sapiens, HCT-116, 144 h) it was 458 nM.
On to `Cc1cc2cc(C(=O)N(Cc3ccc(C(F)(F)F)cn3)n3ccc4ccccc43)ccc2nc1N` [Example 28, 2-amino-N-(1H-indol-1-yl)-3-methyl-N-((5-(trifluoromethyl)pyridin-2-yl)methyl)quinoline-6-carboxamide], for which the half-maximal inhibitory concentration (IC50) in the experiment on HCT116 MTAP KO cells (Homo sapiens, HCT-116, 144 h) is 139 nM; with HCT116-WT cells (144 h), 2530 nM. In the experiment with HCT116 MTAP KO cells, the “Selectivity HCT 116-WT/ HCT116 MTAP KO” value was 18.22.
Regarding `Cc1cc2nc(N)c3cnn(C)c3c2cc1C(=O)N1CCCN1c1ncccn1` [Example 332, (4-amino-1,7-dimethyl-1H-pyrazolo[4,3-c]quinolin-8-yl)(2-(pyrimidin-2-yl)pyrazolidin-1-yl)methanone], the IC50 at PRMT5-MTA was 6 nM; in the experiment with HCT116 MTAP KO cells (Homo sapiens, HCT-116, 144 h), 405 nM.
`Cc1cc2nc(N)c3cnn(C)c3c2cc1C(=O)N1CCCN1c1ccccn1` [Example 349, (4-amino-1,7-dimethyl-1H-pyrazolo[4,3-c]quinolin-8-yl)(2-(pyridin-2-yl)pyrazolidin-1-yl)methanone]: the IC50 at PRMT5-MTA is 6.1 nM; in the experiment with HCT116 MTAP KO cells (Homo sapiens, HCT-116, 144 h), 458 nM.
Regarding `Nc1nc2ccc(C(=O)N3CCCN3c3ccc(C(F)(F)F)cn3)cc2c2c1COC2` [Example 341, (4-amino-1,3-dihydrofuro[3,4-c]quinolin-8-yl)(2-(5-(trifluoromethyl)pyridin-2-yl)pyrazolidin-1-yl)methanone], the IC50 on PRMT5-MTA is 4.7 nM; in the experiment on HCT116 MTAP KO cells (Homo sapiens, HCT-116, 144 h), more than 10000 nM.
For the molecule `Cc1cc2nc(N)c3cnn(C)c3c2cc1C(=O)N1CCCN1c1ccc(C(F)(F)F)nc1` [Example 329, (4-amino-1,7-dimethyl-1H-pyrazolo[4,3-c]quinolin-8-yl)(2-(6-(trifluoromethyl)pyridin-3-yl)pyrazolidin-1-yl)methanone], the IC50 on PRMT5-MTA turned out to be 3.4 nM; with HCT116 MTAP KO cells (Homo sapiens, HCT-116, 144 h), 831 nM.
Turning to `CC1CN(C(=O)c2cc3c4c(c(N)nc3cn2)COC4)N(c2ncccc2F)C1` (centres unmarked) [Example 511, (4-amino-1,3-dihydrofuro[3,4-c][1,7]naphthyridin-8-yl)(2-(3-fluoropyridin-2-yl)-4-methylpyrazolidin-1-yl)methanone], at PRMT5-MTA, the IC50 worked out at 6.1 nM.
Consider `Cc1cc2nc(N)c3cnn(C)c3c2cc1C(=O)N1C(C)CCN1c1ncccc1F` (centres unmarked) [Example 375, (4-amino-1,7-dimethyl-1H-pyrazolo[4,3-c]quinolin-8-yl)(2-(3-fluoropyridin-2-yl)-5-methylpyrazolidin-1-yl)methanone], for which the half-maximal inhibitory concentration (IC50) was determined as 2.5 nM on PRMT5-MTA and 280 nM in the experiment with HCT116 MTAP KO cells.
As to `Cc1cc2nc(N)c3cnn(C)c3c2cc1C(=O)N(C)N1CCCc2cccnc21` [Example 268, 4-amino-N-(3,4-dihydro-1,8-naphthyridin-1(2H)-yl)-N,1,7-trimethyl-1H-pyrazolo[4,3-c]quinoline-8-carboxamide], the half-maximal inhibitory concentration (IC50) at PRMT5-MTA came out at 3.5 nM.
Still for that read-out and setting: to `Cc1cc2cc(C(=O)N(Cc3ccc(P(C)(C)=O)cn3)N(C)c3ncccn3)ccc2nc1N` [Example 297, 2-amino-N-((5-(dimethylphosphoryl)pyridin-2-yl)methyl)-N',3-dimethyl-N'-(pyrimidin-2-yl)quinoline-6-carbohydrazide] belongs 6.4 nM; to `Cc1cc2cc(C(=O)N(Cc3ccc(-c4ccc(N(C)C5CC5)nc4)cn3)N(C)c3ncccn3)ccc2nc1N` [Compound 247, 2-amino-N-((6'-(cyclopropyl(methyl)amino)-[3,3'-bipyridine]-6-yl)methyl)-N',3-di methyl-N'-(pyrimidin-2-yl)quinoline-6-carbohydrazide], 7.7 nM; to `Cc1cc2nc(N)c3cnn(C)c3c2cc1C(=O)N1CC(C)CN1c1ncccc1C(F)(F)F` (centres unmarked) [Example 399, (4-amino-1,7-dimethyl-1H-pyrazolo[4,3-c]quinolin-8-yl)(4-methyl-2-(3-(trifluoromethyl)pyridin-2-yl)pyrazolidin-1-yl)met hanone], 6.2 nM.

The record behind these values is patent EP4745134A1 (Jiangsu Yahong Meditech Co., Ltd., priority 2023, dated 2025).
